Values of other authors, collected in patent US6942970B2, “Identifying subjects suitable for topoisomerase II inhibitor treatment” (Zymed Laboratories, Inc., priority 2000, dated 2005).

Tested on: advanced breast cancer
Conditions: first-line chemotherapy, advanced breast cancer patients

Structure (SMILES): COc1cccc2c1C(=O)c1c(O)c3c(c(O)c1C2=O)C[C@@](O)(C(=O)CO)C[C@@H]3O[C@H]1C[C@H](N)[C@@H](O)[C@H](C)O1 [epirubicin]
- response rate (CR+PR): 48%
